In the kinase profiling compilation of Christmann-Franck et al. (2016):

Legend:
Experiment in all cases: KINOMEscan competition binding
Details in all cases: compound 10.0 µM
MAP3K13 (human) = MAP3K13 (human) (UniProt O43283)
MAP4K2 (human) = MAP4K2 (human) (UniProt Q12851)
LATS2 (human) = LATS2 (human) (UniProt Q9NRM7)
STK17A (human) = STK17A (human) (UniProt Q9UEE5)
DAPK1 (human) = DAPK1 (human) (UniProt P53355)
MAK (human) = MAK (human) (UniProt P20794)
CSNK1A1 (human) = CSNK1A1 (human) (UniProt P48729)
MYO3A (human) = MYO3A (human) (UniProt Q8NEV4)
MAP2K2 (human) = MAP2K2 (human) (UniProt P36507)
PRKCI (human) = PRKCI (human) (UniProt P41743)
VRK2 (human) = VRK2 (human) (UniProt Q86Y07)
VRK2 (human), sequence (Q86Y07 whole entry, looked up): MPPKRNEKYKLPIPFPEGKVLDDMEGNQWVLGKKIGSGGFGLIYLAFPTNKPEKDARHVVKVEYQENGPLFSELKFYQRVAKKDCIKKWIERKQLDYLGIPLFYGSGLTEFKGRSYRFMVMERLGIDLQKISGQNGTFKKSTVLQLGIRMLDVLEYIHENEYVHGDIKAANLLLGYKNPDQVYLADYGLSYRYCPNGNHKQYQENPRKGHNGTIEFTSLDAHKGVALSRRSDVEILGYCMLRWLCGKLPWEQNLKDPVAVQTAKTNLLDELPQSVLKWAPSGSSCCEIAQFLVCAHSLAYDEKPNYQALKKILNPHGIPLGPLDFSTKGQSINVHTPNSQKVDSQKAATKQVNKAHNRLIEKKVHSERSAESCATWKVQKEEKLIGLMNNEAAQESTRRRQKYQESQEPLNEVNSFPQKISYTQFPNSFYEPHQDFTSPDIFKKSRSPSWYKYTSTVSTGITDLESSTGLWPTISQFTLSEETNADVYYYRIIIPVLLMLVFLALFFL

LRRK2 (human) = LRRK2 (human) (UniProt Q5S007)
LRRK2 (human), sequence (Q5S007 whole entry, looked up): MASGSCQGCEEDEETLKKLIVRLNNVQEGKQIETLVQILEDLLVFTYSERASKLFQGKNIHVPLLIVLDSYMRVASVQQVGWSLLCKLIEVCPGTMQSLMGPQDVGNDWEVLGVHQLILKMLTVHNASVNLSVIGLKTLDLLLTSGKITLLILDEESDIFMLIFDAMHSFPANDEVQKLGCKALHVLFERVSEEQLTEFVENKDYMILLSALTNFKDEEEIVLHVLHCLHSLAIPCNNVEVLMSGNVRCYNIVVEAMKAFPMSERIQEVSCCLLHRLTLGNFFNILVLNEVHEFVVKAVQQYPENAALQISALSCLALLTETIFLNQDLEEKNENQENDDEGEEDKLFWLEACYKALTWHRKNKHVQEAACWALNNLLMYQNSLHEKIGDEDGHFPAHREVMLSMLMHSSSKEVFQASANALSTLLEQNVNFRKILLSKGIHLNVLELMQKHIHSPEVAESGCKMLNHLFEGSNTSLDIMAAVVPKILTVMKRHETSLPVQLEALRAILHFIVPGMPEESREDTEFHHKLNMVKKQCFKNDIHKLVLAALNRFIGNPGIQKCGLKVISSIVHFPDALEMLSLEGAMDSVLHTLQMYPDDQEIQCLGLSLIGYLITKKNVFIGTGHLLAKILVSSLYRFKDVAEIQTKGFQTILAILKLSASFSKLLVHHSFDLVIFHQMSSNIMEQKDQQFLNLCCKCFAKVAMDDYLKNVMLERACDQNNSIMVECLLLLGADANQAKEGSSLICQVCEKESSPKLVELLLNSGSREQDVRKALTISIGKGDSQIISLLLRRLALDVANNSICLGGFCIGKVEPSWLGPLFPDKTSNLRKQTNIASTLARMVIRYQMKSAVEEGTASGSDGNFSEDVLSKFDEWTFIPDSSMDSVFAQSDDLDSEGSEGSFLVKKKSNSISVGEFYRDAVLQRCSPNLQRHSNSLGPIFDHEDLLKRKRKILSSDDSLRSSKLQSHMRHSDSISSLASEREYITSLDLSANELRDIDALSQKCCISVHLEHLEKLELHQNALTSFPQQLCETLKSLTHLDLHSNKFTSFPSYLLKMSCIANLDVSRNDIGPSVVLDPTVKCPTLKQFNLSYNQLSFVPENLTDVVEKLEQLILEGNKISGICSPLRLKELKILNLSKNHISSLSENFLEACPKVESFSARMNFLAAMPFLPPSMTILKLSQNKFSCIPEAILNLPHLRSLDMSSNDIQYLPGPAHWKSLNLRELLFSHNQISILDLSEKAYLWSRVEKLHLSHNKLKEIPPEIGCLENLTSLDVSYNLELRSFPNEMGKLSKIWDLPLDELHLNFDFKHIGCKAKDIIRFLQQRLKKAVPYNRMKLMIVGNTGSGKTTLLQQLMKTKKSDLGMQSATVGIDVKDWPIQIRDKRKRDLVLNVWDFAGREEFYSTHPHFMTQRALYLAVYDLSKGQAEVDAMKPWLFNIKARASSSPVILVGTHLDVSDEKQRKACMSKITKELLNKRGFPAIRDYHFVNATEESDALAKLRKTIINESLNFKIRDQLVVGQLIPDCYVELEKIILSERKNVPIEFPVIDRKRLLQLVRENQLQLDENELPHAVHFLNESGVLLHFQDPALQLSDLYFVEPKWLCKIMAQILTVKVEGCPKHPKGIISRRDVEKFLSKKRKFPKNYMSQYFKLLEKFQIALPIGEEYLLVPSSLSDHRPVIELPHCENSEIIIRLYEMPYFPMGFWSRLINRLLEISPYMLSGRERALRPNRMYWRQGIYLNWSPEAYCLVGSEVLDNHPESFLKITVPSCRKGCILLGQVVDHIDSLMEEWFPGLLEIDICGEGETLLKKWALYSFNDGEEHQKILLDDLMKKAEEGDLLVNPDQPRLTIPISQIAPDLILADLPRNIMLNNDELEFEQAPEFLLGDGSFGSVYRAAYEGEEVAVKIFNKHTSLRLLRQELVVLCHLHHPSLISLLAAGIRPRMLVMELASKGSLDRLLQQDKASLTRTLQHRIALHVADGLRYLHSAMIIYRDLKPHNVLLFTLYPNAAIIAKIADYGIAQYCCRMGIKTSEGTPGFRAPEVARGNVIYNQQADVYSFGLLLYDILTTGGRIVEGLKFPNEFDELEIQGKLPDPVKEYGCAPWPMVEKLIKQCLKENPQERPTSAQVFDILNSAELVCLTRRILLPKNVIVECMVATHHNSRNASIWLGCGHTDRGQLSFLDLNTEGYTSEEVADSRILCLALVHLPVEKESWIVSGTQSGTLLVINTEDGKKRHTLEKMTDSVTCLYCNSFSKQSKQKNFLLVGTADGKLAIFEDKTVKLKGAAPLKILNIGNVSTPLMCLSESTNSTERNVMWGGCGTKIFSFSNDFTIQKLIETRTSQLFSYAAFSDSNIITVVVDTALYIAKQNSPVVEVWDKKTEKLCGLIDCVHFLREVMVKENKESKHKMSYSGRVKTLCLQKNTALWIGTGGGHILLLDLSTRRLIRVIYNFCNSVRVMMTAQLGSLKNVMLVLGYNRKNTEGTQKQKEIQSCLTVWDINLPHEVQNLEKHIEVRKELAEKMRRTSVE

TSSK1B (human) = TSSK1B (human) (UniProt Q9BXA7)
[1] = molecular target: TYK2 JH1 catalytic (human) (UniProt P29597)
[2] = molecular target: JAK1 JH1 catalytic (human) (UniProt P23458)
CDK16 (human) = CDK16 (human) (UniProt Q00536)
RPS6KA5 KD2 (human) = RPS6KA5 KD2 (human) (UniProt O75582)
CDK2 (human) = CDK2 (human) (UniProt P24941)
NEK6 (human) = NEK6 (human) (UniProt Q9HC98)
[3] = molecular target: JAK1 JH2 pseudokinase (human) (UniProt P23458)
EIF2AK2 (human) = EIF2AK2 (human) (UniProt P19525)
[4] = tested on: MET (human), P08581 [M1250T]
MAP3K11 (human) = MAP3K11 (human) (UniProt Q16584)
PRKCQ (human) = PRKCQ (human) (UniProt Q04759)
PRKCQ (human), sequence (Q04759 whole entry, looked up): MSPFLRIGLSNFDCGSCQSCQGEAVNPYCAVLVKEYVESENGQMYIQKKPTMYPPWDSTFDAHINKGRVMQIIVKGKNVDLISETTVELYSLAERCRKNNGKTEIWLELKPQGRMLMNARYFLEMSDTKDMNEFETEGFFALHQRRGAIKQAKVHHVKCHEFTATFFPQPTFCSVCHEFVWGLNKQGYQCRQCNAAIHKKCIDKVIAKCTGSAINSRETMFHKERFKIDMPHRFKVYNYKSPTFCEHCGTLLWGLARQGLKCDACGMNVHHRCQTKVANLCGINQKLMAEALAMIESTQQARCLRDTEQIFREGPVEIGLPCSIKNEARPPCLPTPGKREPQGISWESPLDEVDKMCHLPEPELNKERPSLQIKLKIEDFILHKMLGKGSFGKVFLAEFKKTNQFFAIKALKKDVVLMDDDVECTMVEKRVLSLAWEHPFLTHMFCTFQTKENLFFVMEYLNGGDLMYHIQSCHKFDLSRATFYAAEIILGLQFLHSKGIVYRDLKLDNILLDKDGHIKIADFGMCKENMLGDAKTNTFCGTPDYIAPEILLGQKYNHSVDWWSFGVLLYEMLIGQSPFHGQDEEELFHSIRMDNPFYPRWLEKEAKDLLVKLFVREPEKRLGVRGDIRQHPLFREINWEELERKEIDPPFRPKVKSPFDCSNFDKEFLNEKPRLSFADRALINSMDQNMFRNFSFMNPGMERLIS

CSNK2A1 (human) = CSNK2A1 (human) (UniProt P68400)
CAMK1D (human) = CAMK1D (human) (UniProt Q8IU85)
CSK (human) = CSK (human) (UniProt P41240)
CSK (human), sequence (P41240 whole entry, looked up): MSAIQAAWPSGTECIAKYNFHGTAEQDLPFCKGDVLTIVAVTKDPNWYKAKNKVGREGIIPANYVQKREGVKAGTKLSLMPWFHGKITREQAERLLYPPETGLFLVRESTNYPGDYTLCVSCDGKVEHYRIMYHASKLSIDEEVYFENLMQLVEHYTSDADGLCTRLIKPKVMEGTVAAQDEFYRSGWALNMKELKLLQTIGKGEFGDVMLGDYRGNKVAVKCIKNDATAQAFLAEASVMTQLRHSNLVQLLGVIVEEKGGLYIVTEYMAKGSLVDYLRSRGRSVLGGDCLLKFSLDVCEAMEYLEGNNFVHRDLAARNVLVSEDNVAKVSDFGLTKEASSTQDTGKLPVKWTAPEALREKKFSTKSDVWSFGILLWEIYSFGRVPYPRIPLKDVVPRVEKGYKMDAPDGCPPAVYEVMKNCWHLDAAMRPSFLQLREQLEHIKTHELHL

CDC42BPA (human) = CDC42BPA (human) (UniProt Q5VT25)
CAMK2G (human) = CAMK2G (human) (UniProt Q13555)
EPHA8 (human) = EPHA8 (human) (UniProt P29322)
GRK1 (human) = GRK1 (human) (UniProt Q15835)
SRPK2 (human) = SRPK2 (human) (UniProt P78362)
SGK110 (human) = SGK110 (human) (UniProt P0C264)
BRAF (human) = BRAF (human) (UniProt P15056)
PKN3 (M.tuberculosis) = PKN3 (M.tuberculosis) (UniProt Q6P5Z2)
FES (human) = FES (human) (UniProt P07332)

MAP4K2 (human), sequence (Q12851 whole entry, looked up): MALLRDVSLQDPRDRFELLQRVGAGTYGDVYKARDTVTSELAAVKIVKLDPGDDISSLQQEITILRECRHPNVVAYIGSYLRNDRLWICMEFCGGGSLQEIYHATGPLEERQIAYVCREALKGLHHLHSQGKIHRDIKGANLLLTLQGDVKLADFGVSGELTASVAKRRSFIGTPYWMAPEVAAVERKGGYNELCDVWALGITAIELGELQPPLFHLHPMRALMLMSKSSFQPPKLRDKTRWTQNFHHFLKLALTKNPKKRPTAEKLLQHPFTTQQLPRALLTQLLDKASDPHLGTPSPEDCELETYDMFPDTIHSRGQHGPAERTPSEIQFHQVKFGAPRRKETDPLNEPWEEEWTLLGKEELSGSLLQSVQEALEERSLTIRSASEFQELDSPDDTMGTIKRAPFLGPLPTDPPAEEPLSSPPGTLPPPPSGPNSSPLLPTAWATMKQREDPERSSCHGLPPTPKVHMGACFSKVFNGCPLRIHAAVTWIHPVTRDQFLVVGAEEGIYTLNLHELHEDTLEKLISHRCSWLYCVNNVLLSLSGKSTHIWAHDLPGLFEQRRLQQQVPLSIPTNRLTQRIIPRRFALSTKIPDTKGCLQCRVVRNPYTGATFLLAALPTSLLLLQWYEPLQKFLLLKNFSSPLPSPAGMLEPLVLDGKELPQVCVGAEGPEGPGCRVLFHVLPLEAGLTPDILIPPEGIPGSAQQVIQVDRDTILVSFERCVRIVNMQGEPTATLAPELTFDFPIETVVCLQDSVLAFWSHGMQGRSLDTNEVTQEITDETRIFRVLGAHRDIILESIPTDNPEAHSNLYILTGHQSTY

| Structure (SMILES) | kinase still bound, per cent of control (MAP3K13 (human)) [%] | kinase still bound, per cent of control (MAP4K2 (human)) [%] | kinase still bound, per cent of control (LATS2 (human)) [%] | kinase still bound, per cent of control (STK17A (human)) [%] | kinase still bound, per cent of control (DAPK1 (human)) [%] | kinase still bound, per cent of control (MAK (human)) [%] | kinase still bound, per cent of control (CSNK1A1 (human)) [%] | kinase still bound, per cent of control (MYO3A (human)) [%] | kinase still bound, per cent of control (MAP2K2 (human)) [%] | kinase still bound, per cent of control (PRKCI (human)) [%] | kinase still bound, per cent of control (VRK2 (human)) [%] | kinase still bound, per cent of control (LRRK2 (human)) [%] | kinase still bound, per cent of control (TSSK1B (human)) [%] | kinase still bound, per cent of control [1] [%] | kinase still bound, per cent of control [2] [%] | kinase still bound, per cent of control (RPS6KA5 KD2 (human)) [%] | kinase still bound, per cent of control (CDK2 (human)) [%] | kinase still bound, per cent of control [3] [%] | kinase still bound, per cent of control (EIF2AK2 (human)) [%] | kinase still bound, per cent of control (MAP3K11 (human)) [%] | further results |
| --- | --- | --- | --- | --- | --- | --- | --- | --- | --- | --- | --- | --- | --- | --- | --- | --- | --- | --- | --- | --- | --- |
| CCCS(=O)(=O)Nc1ccc(F)c(C(=O)c2c[nH]c3ncc(Cl)cc23)c1F | 100 | 74 | 86 | 44 | 89 | 71 | 84 | 35 | 1 | 100 | 77 | 37 | 83 | 24 | 77 | 86 | 78 | 100 | 74 | 88 | kinase still bound, per cent of control (CDK16 (human)): 68%; kinase still bound, per cent of control (NEK6 (human)): 91%; kinase still bound, per cent of control [4]: 78%; kinase still bound, per cent of control (PRKCQ (human)): 79%; kinase still bound, per cent of control (CSNK2A1 (human)): 18%; kinase still bound, per cent of control (CAMK1D (human)): 78%; kinase still bound, per cent of control (CSK (human)): 2.7%; kinase still bound, per cent of control (CDC42BPA (human)): 96%; kinase still bound, per cent of control (CAMK2G (human)): 96%; kinase still bound, per cent of control (EPHA8 (human)): 95%; kinase still bound, per cent of control (GRK1 (human)): 100%; kinase still bound, per cent of control (SRPK2 (human)): 100%; kinase still bound, per cent of control (SGK110 (human)): 100%; kinase still bound, per cent of control (BRAF (human)): 0%; kinase still bound, per cent of control (PKN3 (M.tuberculosis)): 46% |
| COc1cc2c(Nc3ccc(NC(=O)c4ccccc4)cc3)ncnc2cc1OCCCN1CCOCC1 | 27 | 39 | 82 | 100 | 84 | 59 | 63 | 79 | 0.1 | 94 | 100 | 73 | 100 | 84 | 100 | 100 | 82 | 32 | 100 | 20 | kinase still bound, per cent of control (CDK16 (human)): 64%; kinase still bound, per cent of control (NEK6 (human)): 100%; kinase still bound, per cent of control (PRKCQ (human)): 100%; kinase still bound, per cent of control (FES (human)): 100%; kinase still bound, per cent of control (CSNK2A1 (human)): 87%; kinase still bound, per cent of control (CAMK1D (human)): 62%; kinase still bound, per cent of control (CSK (human)): 7.9%; kinase still bound, per cent of control (CDC42BPA (human)): 85%; kinase still bound, per cent of control (CAMK2G (human)): 100%; kinase still bound, per cent of control (EPHA8 (human)): 83%; kinase still bound, per cent of control (GRK1 (human)): 100%; kinase still bound, per cent of control (SRPK2 (human)): 86%; kinase still bound, per cent of control (SGK110 (human)): 100%; kinase still bound, per cent of control (BRAF (human)): 100%; kinase still bound, per cent of control (PKN3 (M.tuberculosis)): 37% |
| CCN(CCO)CCCOc1ccc2c(Nc3cc(CC(=O)Nc4cccc(F)c4)[nH]n3)ncnc2c1 | 100 | 29 | 52 | 46 | 80 | 92 | 49 | 81 | 21 | 96 | 100 | 100 | 87 | 85 | 100 | 100 | 84 | 100 | 100 | 100 | kinase still bound, per cent of control [4]: 52%; kinase still bound, per cent of control (PRKCQ (human)): 100%; kinase still bound, per cent of control (FES (human)): 100%; kinase still bound, per cent of control (CSNK2A1 (human)): 84%; kinase still bound, per cent of control (CAMK1D (human)): 83%; kinase still bound, per cent of control (CSK (human)): 24%; kinase still bound, per cent of control (CDC42BPA (human)): 100%; kinase still bound, per cent of control (CAMK2G (human)): 100%; kinase still bound, per cent of control (EPHA8 (human)): 90%; kinase still bound, per cent of control (GRK1 (human)): 100%; kinase still bound, per cent of control (SRPK2 (human)): 92%; kinase still bound, per cent of control (SGK110 (human)): 100%; kinase still bound, per cent of control (BRAF (human)): 100%; kinase still bound, per cent of control (PKN3 (M.tuberculosis)): 50% |
